Data on eight compounds can be found in patent US10143720B2, “Modulation of hepatitis B virus cccDNA transcription” (DREXEL UNIVERSITY, priority 2012, dated 2018).

Structures are written as SMILES. Entries after “also recorded” stand apart in the source; their conditions may differ. Read-outs that look alike come from different tables or passages of the source. Where a SMILES comes first, the peptide text is derived from it. [ ]: non-standard residue; d: D form. β3hL = CC(C)C[C@H](N)CC(=O)O; Nva = CCC[C@H](N)C(=O)O

One data set has as its system HDAC-I. As to conditions: cited from earlier work; for HDAC-I inhibitor?: from cited references; for activity against class I HDACs: in words.
The next data set relates to HDAC III. The conditions noted are these: cited from earlier work; for HDAC III inhibitor (printed in the HDAC-II inhibitor line): from cited references.
The test system of another data set is HDAC-II. The conditions noted are these: cited from earlier work; for HDAC-II inhibitor?: from cited references.
The next data set in a line: Toxicity on dstet5 cells. The format is cell-based, chicken. The conditions noted are these: chicken; dstet5 cells; concentration that reduces 50% of cell viability.
Data set [1] relates to HBV cccDNA. The data set can be described thus: cccDNA-dependent DHBV pgRNA / cccDNA transcription in dstet5 cells. The format is cell-based. The conditions noted are these: for Selectivity Index (SI): CC50 divided by EC50; for cccDNA transcription: Dstet5 cells. The source says: Most HBV producing cells lines produce HBV gene products from an HBV transgene integrated into the host chromosome, and thus cccDNA is not the major source of viral product. This makes screening for drugs that target cccDNA difficult. Cell lines were produced in which viral gene products are dependent upon cccDNA. It was established human Hep G2 and chicken hepatoma (LMH)-stable cell lines for this purpose with tetracycline (tet) regulated HBV/DHBV. […] Upon addition of tet back to media to block transgene transcription, and removal of PFA to allow the viral DNA synthesis in the pgRNA-containing capsid to proceed, there is a rapid decline of viral RNA (day 1 and 2), with an eventual increase to a higher level when cccDNA is made after day 3.
With a system and conditions under which viral transcripts are produced in a cccDNA dependent manner (FIGS. 1, 2B), approximately 100 compounds were screened, including those from the inventors' in-house small compound library, those present in the inventors' Natural Products collection, and selected compounds including inhibitors of cellular epigenetic modification enzymes, including HDACs, HATs, Sirtuins, histone methyltransferases, histone demethylases and DNA methyltransferases.

The conditions of data set [2]: cited from earlier work.
Data set [3] relates to DHBV transgene integrated in host cellular chromosome. The experiment in a line: DHBV pgRNA transcription from transgene integrated in host cellular chromosome (FIG. 4). The format is cell-based.
A further data set concerns dstet5 cells. The experiment in a line: Toxicity on dstet5 cells. The format is cell-based, chicken.
The subject of data set [4] is HBV cccDNA. The data set can be described thus: HBV cccDNA transcription in HepG2 cells. The format is cell-based, HBV in human HepG2 cells.
For data set [5] the following is noted: cited from earlier work. The source holds these as a separate data set.
The next data set concerns cccDNA. The conditions noted are these: positive drug control; from our screen, Guo 2012; cited from earlier work.
The next data set relates to WHV. The experiment in a line: WHV-infected woodchuck study. The format is in vivo. As to conditions: by 10 weeks of treatment, expected. The source says: The study uses 10 groups, with 5 animals per group, with drug treatment for 10 weeks followed by 10 weeks off drug (to test durability of affect). Due to variability in the levels of viremia and antigenemia, animals are stratified to groups by WHV viremia and antigenemia levels as determined seven days prior to study start, so that the average levels of both viral markers are evenly distributed among all groups of animals. Animals with abnormally low WHVsAg levels are not used in this study. Compound is administered daily, by a route and frequency to be finalized after bioavailability studies in rodents. The first day of dosing on the study is Study Day 1. Study Day 1 dose levels are calculated on a pretest body weight, and body weights are taken weekly for dose administration. Dosing range is as for the mouse study over four doses, with Group 10 treated with Barraclude as a reference compound (Tennant).
The primary endpoint is a dose dependent reduction in viremia and antigenemia on and off drug achieving durable off drug reductions.
The benchmark of positive activity is LFMAU treated animals.

The subject of a further data set is DHBV. The data set can be described thus: Duck hepadnavirus efficacy study. The conditions noted are these: by 3 weeks of treatment, expected. The format is in vivo, Peking Ducks. From the text: Six-week-old Peking Ducks, chronically infected with DHBV type 16 (Alberta Strain), are used. At 6 weeks, viremia and liver mass in ducks tends to have stabilized. Ducks are given, by either i.m. or oral gavage (depending on Aim 4 PK/TK results), test compound (3 dose groups, with dosing amount and frequency to depend on PK results, but aiming to achieve stable serum levels of at least 10 times the tissue culture IC50). There are three dose groups with 5-6 animals per dose group. Control dose groups (6 animals each group) include placebo treated animals and animals treated with either barraclude (1 mg/kg) or lamivudine (40 mg/kg) per day. At least three animals from all dose groups contribute at least one pre treatment and one post treatment liver biopsy. Treatment is for 10 weeks, since this exceeds the time for lamivudine to suppress viremia to beneath detectable levels and the reported ½ life of cccDNA in the duck. Ducks are followed with weekly serum collections for an additional 4 weeks after withdrawal of drug. Serum will be collected weekly.
Weekly serum is tested for standard “lab values” (hematology, albumin, AST, ALTs, The amount of DHBV viral DNA, sAg, sAb in the circulation is determined. Liver tissue derived from biopsies (some pre treatment and end of treatment from the same animals) is examined for DHBV DNA (cccDNA, replicative forms) and DHBV core (immunostained). […]

The test system of a further data set is HDAC. As to conditions: relative to Apicidin; cited from earlier work.
The mark [6] stands for this setting: in Gallus gallus, read-out: HBV cccDNA (EC50, uM).

As for `CN(C)c1ccc(C(=O)NCCCCCCC(=O)NO)cc1` [4-(dimethylamino)-N-[7-(hydroxyamino)-7-oxoheptyl] benzamide], the “HDAC-I inhibitor?” value with HDAC-I is recorded as “YES^4,7”. Further, the “HDAC III inhibitor (printed in the HDAC-II inhibitor line)” value in the data set with HDAC III is reported as “HDAC III^7,11”. The “HDAC-II inhibitor?” value in the data set on HDAC-II is recorded as “YES &”. Besides, in “Toxicity on dstet5 cells”, the CC50 is over 100000 nM. Further, the “Selectivity Index (SI)” value with HBV cccDNA [1] is over 16. In the data set with HBV cccDNA [1] (setting [6]), the 50% effective concentration (EC50) came to 6.25 µM.

For the compound `CCC(=O)CCCCC[C@@H]1NC(=O)[C@H]2CCCCN2C(=O)[C@H]([C@@H](C)CC)NC(=O)[C@H](Cc2cn(OC)c3ccccc23)NC1=O` [Apicidin, cyclo(N—O-methyl-L-tryptophanyl-L-isoleucinyl-D-pipecolinyl-L-2-amino-8-oxodecanoyl)], in the data set with HDAC-I, the “HDAC-I inhibitor?” value is recorded as “YES^4,5” and the “activity against class I HDACs” value was “nanomolar activity; also recorded: efficiently inhibits”. Besides, the aqueous solubility entry in [2] is reported as “very poor”. In addition, the “DHBV pgRNA transcription from transgene integrated in host cellular chromosome” value in data set [3] is listed as “dose-dependently stimulate”. Also, the toxicity entry with dstet5 cells (at up to 20 uM for five days) is given as “no toxicity”. In the data set on dstet5 cells (dstet5 cells, concentration that reduces 50% of cell viability), this compound returned a CC50 of over 20000 nM. The “activity against the DHBV, in culture” value with HBV cccDNA [1] is reported as “highly active”. The cccDNA transcription entry with HBV cccDNA [1] (FIG. 3) is reported as “repress”. Besides, the concentration for a half-maximal effect (EC50) with HBV cccDNA [1] (FIG. 3, read-out: inhibition of cccDNA, EC50) was about 0.18 µM. Further, in the data set with HBV cccDNA [1] (dstet5 system, concentration that reduces 50% of the HBV specific signal (RNA and/or HBeAg), read-out: HBV cccDNA (EC50)), the EC50 was determined as 0.183 µM. For the same compound, in the data set with HBV cccDNA [4], the “HBV cccDNA transcription” value was “repress” and the cccDNA levels entry is “reduced”. Besides, the “half life in vivo” value in data set [5] is given as “very poor”. For the same compound, the oral bioavailability result in [5] (in vivo, po) was “very poor”.

Turning to `O=C(CN(c1cc(C(F)(F)F)ccc1Cl)S(=O)(=O)c1ccccc1)NCc1ccncc1` [CCC-0975], in the data set with cccDNA, the cccDNA formation entry was “inhibits”.

Take `Cc1cn([C@H]2O[C@@H](CO)[C@H](O)[C@H]2F)c(=O)[nH]c1=O` [LFMAU]: the “HBV viremia and antigenemia” value with WHV was “uniformly lost HBV viremia and even antigenemia”; in the data set on DHBV it was “uniformly lost HBV viremia and even antigenemia”.

As to `O=C(CCCCCCC(=O)NO)NO` [Suberoyl bis hydroxamic acid (SBHA), Suberoyl bis hydroxamic acid], the “HDAC-I inhibitor?” value with HDAC-I was “YES^4,6,7,10”. In addition, the “HDAC III inhibitor (printed in the HDAC-II inhibitor line)” value with HDAC III was “HDAC III^11”. Moreover, the “HDAC-II inhibitor?” value with HDAC-II was “YES &”. In addition, in “Toxicity on dstet5 cells”, the 50% cytotoxic concentration (CC50) is over 40000 nM. The “Selectivity Index (SI)” value with HBV cccDNA [1] is over 16. Besides, the EC50 in the data set on HBV cccDNA [1] (setting [6]) came out at 2.5 µM.

On to `CC(/C=C/C(=O)NO)=C\[C@@H](C)C(=O)c1ccc(N(C)C)cc1` [Trichostatin A], for which, in the data set on HDAC-I, the “HDAC-I inhibitor?” value is given as “YES^5,6,9” and the “activity against class I HDACs” value was “inhibited”. Also, in the data set on HDAC III (in words), the “effect on class III HDACs (sirtuins)” value is on record as “not affected”. In addition, the “HDAC-II inhibitor?” value with HDAC-II is listed as “YES^4,5,6,9”. Also, in the data set with HDAC-II (in words), the “activity against class II HDACs” value was “inhibited”. Also, the “DHBV pgRNA transcription from transgene integrated in host cellular chromosome” value in data set [3] was “dose-dependently stimulate”. In the data set “Toxicity on dstet5 cells”, this compound registered a CC50 of over 20000 nM. In addition, the “Selectivity Index (SI)” value in the data set on HBV cccDNA [1] is over 40. In the data set on HBV cccDNA [1] (FIG. 3), the cccDNA transcription result is given as “repress”. In addition, the 50% effective concentration (EC50) in the data set with HBV cccDNA [1] (setting [6]) amounted to 0.48 µM. In the data set on HBV cccDNA [4], the “HBV cccDNA transcription” value is listed as “repress” and the cccDNA levels entry was “reduced”.

For the compound `CCC(=O)CCCCC[C@@H]1NC(=O)Cn2cc(nn2)[C@H](C(C)CC)NC(=O)[C@H](Cc2c[nH]c3ccccc23)NC1=O` (stereo partly shown) [analog 1], the “anti HDAC potency” value in the data set with HDAC was “without loss of anti HDAC potency”.

For `CCC[C@@H]1NC(=O)[C@H](C)NC(=O)C[C@H](CC(C)C)NC(=O)[C@H](Cc2c[nH]c3ccccc23)NC1=O` [analog 2] (cyclo(A[Nva]W[β3hL])), the “anti HDAC potency” value in the data set on HDAC was “without loss of anti HDAC potency”.

A word on the CC50: it is the concentration at which the toxic effect on the cells reaches its halfway point. The EC50 is the concentration needed to bring the measured effect to its halfway point.
